The text below walks through data of patent US8993547B2, “3-desoxy-2-methylene-19-nor-vitamin D analogs and their uses” (Wisconsin Alumni Research Foundation, priority 2011, dated 2015).

“Also recorded” adds a separate entry of the source.

Assay [1] concerns Human promyelocytic leukemia (HL60) cells. As to the kind of experiment: HL-60 cell differentiation (nitro blue tetrazolium reduction). The format is cell-based. Particulars: for EC50: HL60 cells, 4 days. On the procedure: The study drugs were dissolved in ethanol and the concentrations determined using UV spectrophotometry. Serial dilutions were prepared so that a range of drug concentrations could be tested without changing the final concentration of ethanol (≦0.2%) present in the cell cultures.
Human promyelocytic leukemia (HL60) cells were grown in RPMI-1640 medium containing 10% fetal bovine serum. The cells were incubated at 37° C. in the presence of 5% CO2.
HL60 cells were plated at 1.2×10^5 cells/ml. Eighteen hours after plating, cells in duplicate were treated with drug. Four days later, the cells were harvested and a nitro blue tetrazolium reduction assay was performed (Collins et al., 1979; J. Exp. Med. 149:969-974). The percentage of differentiated cells was determined by counting a total of 200 cells and recording the number that contained intracellular black-blue formazan deposits. Verification of differentiation to monocytic cells was determined by measuring phagocytic activity (data not shown).

The subject of assay [2] is bone calcium mobilization. The experiment in a line: Bone calcium mobilization (serum calcium) in vitamin D-deficient rats. The format is in vivo, Sprague-Dawley rats. The settings on record: for bone calcium mobilization activity / serum calcium: vitamin D-deficient rats on low calcium diet (0.02%). On the procedure:
(§1) Male, weanling Sprague-Dawley rats were placed on Diet 11 (Suda et al, J. Nutr. 100:1049, 1970) (0.47% Ca)+vitamins AEK for one week followed by Diet 11 (0.02% Ca)+vitamins AEK for 3 weeks. The rats were then switched to the same diet containing 0.47% Ca for one week followed by two weeks on the same diet containing 0.02% Ca. Dose administration began during the last week on 0.02% calcium diet. Four consecutive ip doses were given approximately 24 hours apart. Twenty-four hours after the last dose, blood was collected from the severed neck and the concentration of serum calcium determined by atomic absorption spectrometry as a measure of bone calcium mobilization. The first 10 cm of the intestine was also collected for intestinal calcium transport analysis using the everted gut sac method.

For assay [3], the system named is 24-hydroxylase (24Ohase) gene promoter in ROS 17/2.8 (bone) cells. The experiment in a line: In vitro transcription assay, 24-hydroxylase gene promoter luciferase reporter. The format is cell-based. The settings on record: for transcriptional activity in bone cells compared to 1α,25-dihydroxyvitamin D3: 24-hydroxylase gene; for EC50: ROS 17/2.8 cells, 16 hours after dosing, read-out: EC50, transcriptional activity in bone cells (24-hydroxylase gene). On the procedure: Transcription activity was measured in ROS 17/2.8 (bone) cells that were stably transfected with a 24-hydroxylase (24Ohase) gene promoter upstream of a luciferase reporter gene (Arbour et al., 1998). Cells were given a range of doses. Sixteen hours after dosing the cells were harvested and luciferase activities were measured using a luminometer. RLU=relative luciferase units.
On the technique in general: In a reporter assay the amount or activity of a reporter protein is the signal.

The test system of assay [4] is intestinal calcium transport. The experiment in a line: Intestinal calcium transport, everted gut sac method. The format is in vivo, Sprague-Dawley rats. The settings on record: vitamin D-deficient rats. On the procedure: as §1
The target of assay [5] is T1, full-length recombinant rat vitamin D receptor (Rattus norvegicus, UniProt P13053).
T1 construct: Full-length recombinant rat receptor was expressed in E. coli; histidine tag (C); made in house; host or cells: E. coli BL21 (DE3) Codon Plus RIL
T1 sequence (P13053 1-423): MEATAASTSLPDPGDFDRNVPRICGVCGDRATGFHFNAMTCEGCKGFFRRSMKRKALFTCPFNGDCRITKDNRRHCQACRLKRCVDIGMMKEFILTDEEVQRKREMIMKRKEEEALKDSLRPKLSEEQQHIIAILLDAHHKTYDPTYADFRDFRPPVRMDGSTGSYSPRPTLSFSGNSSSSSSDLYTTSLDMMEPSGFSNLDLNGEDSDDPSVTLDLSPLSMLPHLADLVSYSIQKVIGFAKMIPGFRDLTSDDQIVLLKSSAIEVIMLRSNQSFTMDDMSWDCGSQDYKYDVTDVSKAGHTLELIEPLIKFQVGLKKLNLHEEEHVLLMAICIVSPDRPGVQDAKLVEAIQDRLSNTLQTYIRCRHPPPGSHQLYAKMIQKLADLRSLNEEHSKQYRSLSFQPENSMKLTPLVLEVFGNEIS
As to the kind of experiment: Vitamin D receptor competitive binding with [3H]-1,25(OH)2D3. The settings on record: full-length recombinant rat VDR. On the procedure: Full-length recombinant rat receptor was expressed in E. coli BL21 (DE3) Codon Plus RIL cells and purified to homogeneity using two different column chromatography systems. The first system was a nickel affinity resin that utilizes the C-terminal histidine tag on this protein. The protein that was eluted from this resin was further purified using ion exchange chromatography (S-Sepharose Fast Flow). Aliquots of the purified protein were quick frozen in liquid nitrogen and stored at −80° C. until use. For use in binding assays, the protein was diluted in TEDK50 (50 mM Tris, 1.5 mM EDTA, pH7.4, 5 mM DTT, 150 mM KCl) with 0.1% Chaps detergent. The receptor protein and ligand concentration was optimized such that no more than 20% of the added radiolabeled ligand was bound to the receptor.
Radiolabeled and unlabeled ligands were added to 100 mcl of the diluted protein at a final ethanol concentration of ≦10%, mixed and incubated overnight on ice to reach binding equilibrium. The following day, 100 mcl of hydroxylapatite slurry (50%) was added to each tube and mixed at 10-minute intervals for 30 minutes. The hydroxylapaptite was collected by centrifugation and then washed three times with Tris-EDTA buffer (50 mM Tris, 1.5 mM EDTA, pH 7.4) containing 0.5% Titron X-100. After the final wash, the pellets were transferred to scintillation vials containing 4 ml of Biosafe II scintillation cocktail, mixed and placed in a scintillation counter. Total binding was determined from the tubes containing only radiolabeled ligand.

In the case of `C=C1/C(=C\C=C2/CCC[C@]3(C)[C@@H]([C@H](C)CCCC(C)(C)O)CC[C@@H]23)C[C@@H](O)C[C@@H]1O` [1α,25-dihydroxyvitamin D3, reference compound], the EC50 (as a rule, the concentration giving half of the maximal effect) in assay [1] worked out at 2 nM. The “bone calcium mobilization activity / serum calcium” value in assay [2] was “increased serum calcium levels at the dosages tested”.

`C=C1CC/C(=C/C=C2\CCC[C@]3(C)[C@@H]([C@H](C)CCCC(C)(C)O)CC[C@@H]23)C[C@H]1O` [3D-MJ, (20R)-3-desoxy-2-methylene-1α,25-dihydroxy-19-nor-vitamin D3]: in assay [1], the “potency on HL-60 cell differentiation compared to 1,25(OH)2D3” value is given as “about the same potency as 1,25(OH)2D3”. This compound also yielded an EC50 in assay [1] (Homo sapiens, HL-60, 96 h) of 1 nM. Moreover, in assay [3], the “transcriptional activity in bone cells compared to 1α,25-dihydroxyvitamin D3” value is recorded as “about the same transcriptional activity” and the EC50 came to 0.3 nM. Also, the “intestinal calcium transport activity compared to 1,25(OH)2D3” value in assay [4] was “about the same potency as 1,25(OH)2D3; also recorded: about as potent”. Moreover, in assay [5], the “binding affinity to vitamin D receptor compared to 1,25-(OH)2D3” value is recorded as “about the same affinity”. Besides, in assay [5] (read-out: Ki, competition with [3H]-1,25(OH)2D3 for binding to vitamin D receptor), the Ki (in general, the dissociation constant of the complex between target and ligand, obtained from inhibition or displacement) came to 0.7 nM. The “mobilization of bone calcium compared to native hormone at the same dose” value in assay [2] (87 pmol/day for 4 consecutive days) is reported as “only slightly less mobilization of bone calcium than the native hormone”. For the same compound, the “bone calcium mobilization activity / serum calcium” value in assay [2] is “about the same potency as the native hormone”.

`C=C1CC/C(=C/C=C2\CCC[C@]3(C)[C@@H]([C@@H](C)CCCC(C)(C)O)CC[C@@H]23)C[C@H]1O` [3-desoxy-2MD, (20S)-3-desoxy-2-methylene-1α,25-dihydroxy-19-nor-vitamin D3] displayed an EC50 in assay [1] (Homo sapiens, HL-60, 96 h) of 0.7 nM. For the same compound, in assay [3], the “transcriptional activity in bone cells compared to 1α,25-dihydroxyvitamin D3” value is given as “about the same transcriptional activity” and the EC50 was 0.3 nM. For the same compound, the “intestinal calcium transport activity compared to 1,25(OH)2D3” value in assay [4] was “about one half log less potent; also recorded: at least one half log less potent than 1,25(OH)2D3”. In addition, in assay [5], the “binding affinity to vitamin D receptor compared to 1,25-(OH)2D3” value is on record as “about the same affinity”. Besides, the “potency in mobilization of bone calcium relative to native hormone at the same dose” value in assay [2] (780 pmol/day for 4 consecutive days, rats on low calcium diet (0.02%)) is on record as “about 10 times”. For the same compound, the “potency in releasing bone calcium stores relative to native hormone” value in assay [2] (vitamin D-deficient rats, times more potent than 1,25(OH)2D3) is “at least 10 times”.
